According to PubChem BioAssay (NCI):
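Method: 48-hour compound exposure of cells in 96-well plates, five concentrations, linear interpolation of endpoints. Abbreviation: GI50, concentration required for 50% inhibition of growth. TGI is the concentration that stops growth completely.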

Tests used:
Assay in all cases: NCI-60 cell line screen, 48 h
[1] = tested on: K-562 leukemia
[2] = tested on: SK-MEL-2 melanoma
[3] = tested on: PC-3 prostate
[4] = tested on: SF-539 CNS
[5] = tested on: HL-60(TB) leukemia
[6] = tested on: OVCAR-8 ovarian
[7] = tested on: OVCAR-5 ovarian
[8] = tested on: UO-31 renal
[9] = tested on: 786-0 renal
[10] = tested on: M14 melanoma

Compound | GI50 [1] | TGI [1] | GI50 [2] | TGI [2] | GI50 [3] | TGI [3] | GI50 [4] | TGI [4] | GI50 [5] | TGI [5] | GI50 [6] | TGI [6] | GI50 [7] | TGI [7] | GI50 [8] | TGI [8] | GI50 [9] | TGI [9] | GI50 [10] | TGI [10]
C[C@@H]1CN2[C@H]3[C@@H]1CC[C@]31CCC(=O)O[C@]1(C)[C@H]1CC[C@H]3CCC=C3[C@@H]12 | > 30 µM | > 30 µM | > 30 µM | > 30 µM | > 30 µM | > 30 µM | > 30 µM | > 30 µM | > 30 µM | > 30 µM | > 30 µM | > 30 µM | > 30 µM | > 30 µM | > 30 µM | > 30 µM | > 30 µM | > 30 µM | > 30 µM | > 30 µM
CS(=O)(=O)OCCN(CCOS(C)(=O)=O)c1ccc(C=Nc2ccc(-c3csc(COc4ccccc4)n3)cc2)cc1 |  | > 76 µM |  | 37.3 µM |  | 28.2 µM |  | 14.7 µM |  | 16.2 µM |  | 19.6 µM |  | 12.6 µM |  | 2.93 µM |  | 4.52 µM |  | 28.1 µM
CCCCn1c(=O)[nH]c(N)c([C@@H]2c3c([nH]c(=O)n(CCCC)c3=O)Oc3ccc4ccccc4c32)c1=O | 12.2 µM | 51.2 µM | 2.51 µM | 7.34 µM | 1.65 µM | 3.23 µM | 7.86 µM | 20.4 µM | 2.47 µM | 6.75 µM | 1.82 µM | 3.51 µM | 3.63 µM | 13.8 µM | 1.35 µM | 2.69 µM | 2.04 µM | 4.41 µM | 1.92 µM | 4.2 µM
N#CCCNc1nonc1-c1nc2ccccc2n1CC(=O)c1ccc(N)cc1 | < 0.01 µM | > 100 µM | 0.498 µM |  | 0.0271 µM | > 77.8 µM | 0.0252 µM | 1.19 µM | < 0.0164 µM |  | 0.0354 µM | > 100 µM | 0.0593 µM | > 100 µM | 0.282 µM | > 100 µM | 0.0417 µM | > 100 µM | 0.0249 µM | > 100 µM
O=c1[nH]c2ccccc2n1C1CCNCC1 | > 100 µM | > 100 µM | > 100 µM | > 100 µM | > 100 µM | > 100 µM | > 100 µM | > 100 µM | > 100 µM | > 100 µM | > 100 µM | > 100 µM | > 100 µM | > 100 µM | > 100 µM | > 100 µM | > 100 µM | > 100 µM | > 100 µM | > 100 µM
COc1cc(/C=C/C(=O)c2cccc(-n3cc(-c4ccccc4)[nH]c3=O)c2)cc(OC)c1OC | 0.502 µM | > 100 µM | 2.06 µM | 4.98 µM | 3.26 µM | 20.7 µM | 1.68 µM | 3.12 µM | 2.9 µM | > 100 µM | 1.62 µM | 16.4 µM | 1.88 µM | 3.74 µM | 1.51 µM | 4.56 µM | 1.38 µM | 2.97 µM | 1.35 µM | 2.72 µM
